Results: PubChem BioAssay (NCI)
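Values below derive from 48-hour exposures of cells grown in 96-well plates, with endpoints linearly interpolated between the two concentrations bracketing the appropriate inhibition level. GI50 marks 50% less growth. TGI: total growth inhibition.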

Experiments:
Assay in all cases: DTP human tumour cell line panel, 48 h
UACC-257 melanoma = system: UACC-257 melanoma
SK-MEL-2 melanoma = system: SK-MEL-2 melanoma
COLO 205 colon = system: COLO 205 colon
NCI-H23 lung = system: NCI-H23 lung
HCT-116 colon = system: HCT-116 colon
RXF 393 renal = system: RXF 393 renal
MDA-MB-231 breast = system: MDA-MB-231 breast
OVCAR-3 ovarian = system: OVCAR-3 ovarian
CCRF-CEM leukemia = system: CCRF-CEM leukemia
SN12C renal = system: SN12C renal
NCI-H460 lung = system: NCI-H460 lung
HCT-15 colon = system: HCT-15 colon
MOLT-4 leukemia = system: MOLT-4 leukemia
OVCAR-8 ovarian = system: OVCAR-8 ovarian
HT29 colon = system: HT29 colon
U251 CNS = system: U251 CNS
K-562 leukemia = system: K-562 leukemia
SF-268 CNS = system: SF-268 CNS
NCI-H522 lung = system: NCI-H522 lung
RPMI-8226 leukemia = system: RPMI-8226 leukemia
UACC-62 melanoma = system: UACC-62 melanoma
LOX IMVI melanoma = system: LOX IMVI melanoma
OVCAR-4 ovarian = system: OVCAR-4 ovarian
BT-549 breast = system: BT-549 breast
M14 melanoma = system: M14 melanoma
SR leukemia = system: SR leukemia
HCC-2998 colon = system: HCC-2998 colon
SK-MEL-5 melanoma = system: SK-MEL-5 melanoma
TK-10 renal = system: TK-10 renal
A498 renal = system: A498 renal
NCI-H226 lung = system: NCI-H226 lung
OVCAR-5 ovarian = system: OVCAR-5 ovarian
SF-539 CNS = system: SF-539 CNS
MDA-MB-435 = system: MDA-MB-435
HL-60(TB) leukemia = system: HL-60(TB) leukemia
DU-145 prostate = system: DU-145 prostate
MCF7 breast = system: MCF7 breast
ACHN renal = system: ACHN renal
NCI/ADR-RES ovarian = system: NCI/ADR-RES ovarian
SK-MEL-28 melanoma = system: SK-MEL-28 melanoma
MALME-3M melanoma = system: MALME-3M melanoma
SNB-19 CNS = system: SNB-19 CNS
T-47D breast = system: T-47D breast
A549 NSCLC = system: A549 NSCLC
786-0 renal = system: 786-0 renal
SF-295 CNS = system: SF-295 CNS
KM12 colon = system: KM12 colon
UO-31 renal = system: UO-31 renal
SW-620 colon = system: SW-620 colon
EKVX NSCLC = system: EKVX NSCLC
SNB-75 CNS = system: SNB-75 CNS
IGROV1 ovarian = system: IGROV1 ovarian
HOP-62 NSCLC = system: HOP-62 NSCLC
PC-3 prostate = system: PC-3 prostate
SK-OV-3 ovarian = system: SK-OV-3 ovarian

## O=C1Nc2ccccc2/C1=C\c1nc(-c2ccccc2F)n2ccccc12
UACC-257 melanoma
  GI50: 5.2 µM
  TGI: 18.1 µM
SK-MEL-2 melanoma
  GI50: 6.81 µM
  TGI: 19.6 µM
COLO 205 colon
  GI50: 4.08 µM
  TGI: 14.9 µM
NCI-H23 lung
  GI50: 4.55 µM
  TGI: 17.3 µM
HCT-116 colon
  GI50: 1.97 µM
  TGI: 4.04 µM
RXF 393 renal
  GI50: 3.14 µM
  TGI: 10.7 µM
MDA-MB-231 breast
  GI50: 2.27 µM
  TGI: 9.07 µM
OVCAR-3 ovarian
  GI50: 1.9 µM
  TGI: 4.38 µM
CCRF-CEM leukemia
  GI50: 91.1 µM
  TGI: > 100 µM
SN12C renal
  GI50: 4.32 µM
  TGI: 17 µM
NCI-H460 lung
  GI50: 2.17 µM
  TGI: 5.14 µM
HCT-15 colon
  GI50: 13 µM
  TGI: > 100 µM
MOLT-4 leukemia
  GI50: 28.2 µM
  TGI: > 100 µM
OVCAR-8 ovarian
  GI50: 2.49 µM
  TGI: 8.12 µM
HT29 colon
  GI50: 3.5 µM
  TGI: 12.1 µM
U251 CNS
  GI50: 2.57 µM
  TGI: 6.1 µM
K-562 leukemia
  GI50: 6.35 µM
  TGI: 19.7 µM
SF-268 CNS
  GI50: 4.65 µM
  TGI: 18.7 µM
NCI-H522 lung
  GI50: 2.18 µM
  TGI: 7.37 µM
RPMI-8226 leukemia
  GI50: 51.4 µM
  TGI: > 100 µM
UACC-62 melanoma
  GI50: 6.32 µM
  TGI: 25.2 µM
LOX IMVI melanoma
  GI50: 4.15 µM
  TGI: 15.6 µM
OVCAR-4 ovarian
  GI50: 1.81 µM
  TGI: 4.49 µM
BT-549 breast
  GI50: 3.37 µM
  TGI: 12.9 µM
M14 melanoma
  GI50: 5.65 µM
  TGI: 17.9 µM
SR leukemia
  GI50: 11 µM
  TGI: 29.4 µM
HCC-2998 colon
  GI50: 55.2 µM
  TGI: > 100 µM
SK-MEL-5 melanoma
  GI50: 2.8 µM
  TGI: 11.4 µM
TK-10 renal
  GI50: 4.05 µM
  TGI: 14.2 µM
A498 renal
  GI50: 2.81 µM
  TGI: 11 µM
NCI-H226 lung
  GI50: 4.78 µM
  TGI: 21.3 µM
OVCAR-5 ovarian
  GI50: 18 µM
  TGI: 53.5 µM
SF-539 CNS
  GI50: 3.1 µM
  TGI: 11.1 µM
MDA-MB-435
  GI50: 3.95 µM
  TGI: 16.1 µM
HL-60(TB) leukemia
  GI50: 24.9 µM
  TGI: > 100 µM
DU-145 prostate
  GI50: 3.26 µM
  TGI: 12.9 µM
MCF7 breast
  GI50: 2.1 µM
  TGI: 12.2 µM
ACHN renal
  GI50: 3.3 µM
  TGI: 10.9 µM
NCI/ADR-RES ovarian
  GI50: 3.36 µM
  TGI: 13.3 µM
SK-MEL-28 melanoma
  GI50: 3.71 µM
  TGI: 14.6 µM
MALME-3M melanoma
  GI50: 3.07 µM
  TGI: 7.22 µM
SNB-19 CNS
  GI50: 4.7 µM
  TGI: 16.7 µM
T-47D breast
  GI50: 2.36 µM
  TGI: 8.11 µM
A549 NSCLC
  GI50: 3.46 µM
  TGI: 10.3 µM
786-0 renal
  GI50: 3.44 µM
  TGI: 10.1 µM
SF-295 CNS
  GI50: 3.68 µM
  TGI: 13.7 µM
KM12 colon
  GI50: 3.49 µM
  TGI: 14.4 µM
UO-31 renal
  GI50: 2.12 µM
  TGI: 10.8 µM
SW-620 colon
  GI50: 3.97 µM
  TGI: 14.2 µM
EKVX NSCLC
  GI50: 10.6 µM
  TGI: 28.3 µM
SNB-75 CNS
  GI50: 1.79 µM
  TGI: 4.95 µM
IGROV1 ovarian
  GI50: 2.04 µM
  TGI: 12.5 µM
HOP-62 NSCLC
  GI50: 2.37 µM
  TGI: 5.93 µM
PC-3 prostate
  GI50: 6.81 µM
  TGI: 26.9 µM
SK-OV-3 ovarian
  GI50: 3.46 µM
  TGI: 12.4 µM
